Tests used:
[1] = tested on: Plasmodium falciparum strain D6; assay: [3H]-hypoxanthine growth inhibition assay; assay type: cell-based; conditions: Plasmodium falciparum, D6, 96 h
Experimental: (§1) The in vitro antimalarial activities of two of the dinuclear ruthenium(II) complexes and chloroquine were assessed by exposing P. falciparum strains to ten serially diluted two-fold concentrations of each compound. Parasite growth was measured by uptake of tritiated [^3H]-hypoxanthine into newly synthesised parasitic DNA.
(§2) The [^3H]-hypoxanthine growth inhibition assay (Desjardins et al., 1979 Antimicrobial Agents Chemother 16: 710-718) was used to evaluate the in vitro antimalarial activity of the compounds. Briefly, synchronised parasite cultures (>90% rings, 6 to 8 h post invasion) in [^3H]-RPMI-LPLF complete medium with 0.5% parasitaemia and 2% haematocrit were exposed to the compounds at ten two-fold concentrations, ranging from 10,000 to 20 nM in 96-well microtitre plates. Chloroquine was used as a reference drug. Uninfected RBCs at 2% haematocrit were used as background controls. For the 96 h exposure period, the plates were incubated in the gas mixture at 37° C. for approximately 48 h, followed by the addition of 0.2 μCi of ^3H-hypoxanthine (GE Healthcare, Amersham) in [^3H]-RPMI-1640-LPLF to each well and a further 48 h of incubation and then frozen at −20° C. Plates were thawed and harvested using Tomtech Harvester 96 Mach III and radioactive counts were obtained using Wallac TriLux 1450 Microbeta Liquid Scintillation Counter (Perkin Elmer, USA). All assays were performed in triplicate for each strain and at least on two separate occasions.
(§3) Tritiated hypoxanthine uptake data were analysed in Graphpad Prism V5.0 software (GraphPad Software Inc. USA). The concentrations of the dinuclear ruthenium(II) complexes and chloroquine were transformed into logarithmic values. After subtracting the background values, the data from drug-treated wells were normalised against drug-free control wells. Non-linear regression analysis was carried out of the compound's concentration versus parasitic hypoxanthine incorporation. The in vitro antimalarial activity of the compound is defined as inhibitory concentrations (IC50) and (IC90) that cause 50% and 90% inhibition of parasite growth as determined by measuring [^3H]-hypoxanthine incorporation.

[2] = tested on: Plasmodium falciparum strain W2; assay: [3H]-hypoxanthine growth inhibition assay; assay type: cell-based; conditions: Plasmodium falciparum, W2, 96 h
Experimental: as §1, §2, §3

S. aureus ATCC 25923 = assay: MIC determination, broth micro-dilution (CAMHB); assay type: cell-based, Staphylococcus aureus; conditions: Table 1; 37° C., 24 h
Experimental: (§4) Four strains of bacteria were chosen for the susceptibility tests: S. aureus ATCC 25923; MRSA (a wild clinical strain from the JCU culture collection); E. coli ATCC 25922 and P. aeruginosa ATCC 27853. The bacteria were grown on Mueller Hinton agar (OXOID, cat. No. CM0337) and suspended in growth medium cation-adjusted Mueller Hinton broth (CAMHB, OXOID, cat. No. CM0405). The MIC of each complex was determined in duplicate by standard micro-dilution methodology (British Society for Antimicrobial Chemotherapy Working Party, J. Antimicrob. Chemother., 1991, 27(suppl. D), 22) using gentamicin as the positive control. The ruthenium complexes were dissolved in CAMHB to a stock solution of […] and two-fold diluted in the broth in 96-well plates in a final volume of […] in each well. The same volume […] of bacterial suspension was added in each well making a concentration range of 0.25 mg ml^−1 to 128 mg ml^−1 for each complex. The plates were incubated at 37° C. for 24 h. The results are summarised in Table 1 below, using the following abbreviations: • Rubpm=ΔΔ-[{Ru(phen)2}2(μ-2,2′-bipyrimidine)]Cl4 • Rudppm=ΔΔ-[{Ru(phen)2}2(μ-4,6-bis(2-pyridyl)pyrimidine)]Cl4 • Rubb7trinuclear=Δ*Δ*-[{Ru*(phen)2}(μ-bb7){Ru(phen)}(μ-bb7){Ru*(phen)2}]Cl6 (only the two terminal metal centres are chiral, the two central metal centres are racemic) • Rubb7tetranuclear=Δ*Δ*-[{Ru*(phen)2}(μ-bb7) {Ru(phen)}(μ-bb7){Ru(phen)}(μ-bb7)-{Ru*(phen)2}]Cl8 (only the two terminal metal centres are chiral, the two central metal centres are racemic)
(§5) Further MIC assays and Minimum Bactericidal Concentration (MBC) assays were conducted against Gram-positive and Gram-negative bacterial strains using symmetric and non-symmetric, inert and labile complexes.

[3] = tested on: MRSA (a wild clinical strain from the JCU culture collection); assay: MIC determination, broth micro-dilution (CAMHB); assay type: cell-based, methicillin-resistant S. aureus; conditions: Table 1; 37° C., 24 h
Experimental: as §4, §5

E. coli ATCC 25922 = assay: MIC determination, broth micro-dilution (CAMHB); assay type: cell-based, Escherichia coli; conditions: Table 1; 37° C., 24 h
Experimental: as §4, §5

P. aeruginosa ATCC 27853 = assay: MIC determination, broth micro-dilution (CAMHB); assay type: cell-based, Pseudomonas aeruginosa; conditions: Table 1; 37° C., 24 h
Experimental: as §4, §5

S. epidermidis = assay: Further MIC assays, whole spectrum bacteria (CAMHB); assay type: cell-based; conditions: Table 3; Broth: CAMHB
Experimental: (§6) Further MIC assays were conducted against five different bacteria with Rubbn (n=7, 10, 12, 16), two rigid dinuclear species (bridges bpm and dppm) and Gentamicin—Whole spectrum bacteria MIC test results (Broth: CAMHB).

S. typhimurium = assay: as above; assay type: cell-based; conditions: Table 3; Broth: CAMHB
Experimental: as §6

E. faecalis = assay: as above; assay type: cell-based; design: unit not given beside the values; conditions: Table 3; Broth: CAMHB
Experimental: as §6

VRE = assay: as above; assay type: cell-based, vancomycin-resistant Enterococcus; conditions: Table 3; Broth: CAMHB
Experimental: as §6

A. baumanii = assay: as above; assay type: cell-based; design: unit not given here; conditions: Table 3; Broth: CAMHB
Experimental: as §6

human red blood cells = assay: Haemolytic assay; assay type: cell-based; conditions: for First indication (>2%) of haemolysis: 24 h incubation with red blood cells
Experimental: Freshly-drawn human blood was collected using lithium heparin vacuum blood collection tubes (Vacutainer, BD Australia). Erythrocytes were separated by centrifugation for 10 min at 1000 g at 10° C. and washed six times with phosphate-buffered saline (PBS) solution and diluted with PBS to a 10% solution. The concentration of erythrocytes was determined by haemocrit centrifugation (Biofuge Haemo, Heraeus instruments). A 1% Triton-X solution was prepared as the positive control. The complexes to be tested were dissolved in PBS to a stock solution of 2048 mg ml^−1 and two-fold diluted in PBS in round-bottomed 96-well plates in a final volume of […] in each well. […] red blood cell suspension samples were added to the wells making a concentration range from […] to 512 μg ml^−1 for Rubbn (n=10, 12, 16) and 2 μg ml^−1 to 1024 μg ml^−1 for Rubb7, and the plates with each complex were respectively incubated for 1, 2, 4, 8 and 24 h at 37° C. After incubation, the plates were centrifuged at 1000 g for 4 min. […] of supernatant in each well was transferred to a corresponding well in a new 96-well microtitre plate. The absorbance of each well was measured at 540 nm using a plate reader (Mutiskan Ascent, Thermo). Each complex was analysed in duplicate. The solutions of the metal complex at the same tested concentrations without erythrocytes were measured as a negative control.
The extent of haemolysis induced by incubation of the ruthenium complexes for 24 h with freshly-collected human red blood cells is shown in FIG. 1 and summarised in Table 5 below: […]

THP-1 cells = assay: Cytotoxicity assay (cell count with haemacytometer); assay type: cell-based, human
Experimental: Consequently, the toxicity (IC50) against THP-1 cells (a human acute monocytic leukemia cell line and a good model for nucleated eukaryotic cells) was examined (J. […] Human monocytic THP-1 cells were obtained from the American Type Culture Collection (ATCC, Rockville, Md., USA). […] Cells were seeded at a density of 5×10^5 per well in a sterile flat bottom 96-well plate, and incubated with the desired drug concentration in duplicate, to a total volume of […]. The concentration range for all the complexes was between […]. The plates containing each complex were respectively incubated for 24 and 48 h at 37° C. with 5% CO2. After incubation, the concentration of cells in each well was counted with a haemacytometer and IC50 values were calculated and the results are summarise in Table 6 below: […]

[4] = all the tested concentrations, over 24 h

## CCN(CC)CCCC(C)Nc1ccnc2cc(Cl)ccc12 (centres unmarked) [chloroquine, reference compound]
[1]; read-out: IC50 D6
  IC50: 0.0098 µM
[1]; read-out: IC90 D6
  IC90: 0.0125 µM
[2]; read-out: IC50 W2
  IC50: 0.176 µM
[2]; read-out: IC90 W2
  IC90: 0.383 µM

## Cc1cc[n+]2c(c1)-c1cc(CCCCCCCc3cc[n+]4c(c3)-c3cc(C)cc[n+]3[Ru-4]435([n+]4cccc6ccc7ccc[n+]3c7c64)[n+]3cccc4ccc6ccc[n+]5c6c43)cc[n+]1[Ru-4]213([n+]2cccc4ccc5ccc[n+]1c5c42)[n+]1cccc2ccc4ccc[n+]3c4c21.F[P-](F)(F)(F)(F)F.F[P-](F)(F)(F)(F)F.F[P-](F)(F)(F)(F)F.F[P-](F)(F)(F)(F)F [ΔΔ-Rubb7, [{Ru(phen)2}2(μ-bb7)](PF6)4]
S. aureus ATCC 25923
  MIC S. aureus: 16 µg/mL
[3]
  MIC MRSA: 32 µg/mL
E. coli ATCC 25922
  MIC E. coli: 16 µg/mL
P. aeruginosa ATCC 27853
  MIC P. aeruginosa: 128 µg/mL
S. epidermidis
  MIC S. epidermidis: 1
S. typhimurium
  MIC S. typhimurium: >128
E. faecalis
  MIC E. faecalis: 32
VRE
  MIC VRE: 16
A. baumanii
  MIC A. baumanii: 64
Human red blood cells
  First indication (>2%) of haemolysis: 64 µg/mL
Human red blood cells; [4]
  haemolytic activity: no significant haemolytic activity
THP-1 cells; 24 h
  IC50: 266 µM
  IC50 THP-1: 400 µg/mL
THP-1 cells; 48 h
  IC50: 173 µM
  IC50 THP-1: 260 µg/mL

## Cc1ccnc(-c2cc(CCCCCCCCCCc3ccnc(-c4cc(C)ccn4)c3)ccn2)c1.F[P-](F)(F)(F)(F)F.F[P-](F)(F)(F)(F)F.F[P-](F)(F)(F)(F)F.F[P-](F)(F)(F)(F)F.[Ru+2].[Ru+2].c1cnc2c(c1)ccc1cccnc12.c1cnc2c(c1)ccc1cccnc12.c1cnc2c(c1)ccc1cccnc12.c1cnc2c(c1)ccc1cccnc12 [ΔΔ-Rubb10, [{Ru(phen)2}2(μ-bb10)](PF6)4]
S. aureus ATCC 25923
  MIC S. aureus: 4 µg/mL
[3]
  MIC MRSA: 4 µg/mL
E. coli ATCC 25922
  MIC E. coli: 4 µg/mL
P. aeruginosa ATCC 27853
  MIC P. aeruginosa: 64 µg/mL
S. epidermidis
  MIC S. epidermidis: 0.5
S. typhimurium
  MIC S. typhimurium: 32
E. faecalis
  MIC E. faecalis: 8
VRE
  MIC VRE: 4
A. baumanii
  MIC A. baumanii: 64
Human red blood cells
  First indication (>2%) of haemolysis: 32 µg/mL
Human red blood cells; [4]
  haemolytic activity: no significant haemolytic activity
THP-1 cells; 24 h
  IC50: 194 µM
  IC50 THP-1: 300 µg/mL
THP-1 cells; 48 h
  IC50: 103 µM
  IC50 THP-1: 160 µg/mL

## ΔΔ-[{Ru(phen)2}2(μ-bb12)](PF6)4 [ΔΔ-Rubb12]
S. aureus ATCC 25923
  MIC S. aureus: 1 µg/mL
[3]
  MIC MRSA: 1 µg/mL
E. coli ATCC 25922
  MIC E. coli: 2 µg/mL
P. aeruginosa ATCC 27853
  MIC P. aeruginosa: 16 µg/mL
S. epidermidis
  MIC S. epidermidis: 0.5
S. typhimurium
  MIC S. typhimurium: 8
E. faecalis
  MIC E. faecalis: 4
VRE
  MIC VRE: 2
A. baumanii
  MIC A. baumanii: 8
Human red blood cells
  First indication (>2%) of haemolysis: 16 µg/mL
Human red blood cells; at 10 μM, over 24 h
  haemolytic activity: essentially exhibited no haemolysis
THP-1 cells; 24 h
  IC50: 86 µM
  IC50 THP-1: 135 µg/mL
THP-1 cells; 48 h
  IC50: 57 µM
  IC50 THP-1: 90 µg/mL

## ΔΔ-[{Ru(phen)2}2(μ-bb16)](PF6)4 [ΔΔ-Rubb16]
S. aureus ATCC 25923
  MIC S. aureus: 1 µg/mL
[3]
  MIC MRSA: 1 µg/mL
E. coli ATCC 25922
  MIC E. coli: 4 µg/mL
P. aeruginosa ATCC 27853
  MIC P. aeruginosa: 8 µg/mL
S. epidermidis
  MIC S. epidermidis: 1
S. typhimurium
  MIC S. typhimurium: 8
E. faecalis
  MIC E. faecalis: 2
VRE
  MIC VRE: 2
A. baumanii
  MIC A. baumanii: 8
Human red blood cells
  First indication (>2%) of haemolysis: 4 µg/mL
Human red blood cells; at 10 μM, for 8 h
  haemolytic activity: low
Human red blood cells; at 10 μM, over 24 h
  haemolytic activity: noticeably increased
THP-1 cells; 24 h
  IC50: 48 µM
  IC50 THP-1: 78 µg/mL
THP-1 cells; 48 h
  IC50: 25 µM
  IC50 THP-1: 40 µg/mL

Source: patent publication US20130172308A1, “ANTIMICROBIAL AGENTS” (John Grant COLLINS, priority 2011, published 2013)
